Columns and labels:
[1] = target: T1, IF2 (protein core, residues 1-363) (Thermus thermophilus, UniProt P48515); experiment: X-ray crystal structure, […] A, crystal soaking; format: binding; conditions: 5 mM GDP added to the crystallization drop; Mg2+ bound; pH 7.5 protein buffer; G-domain P-loop site
T1 construct: gene infB; proteolysed during crystallization to residues 1-363 (40 kDa; N domain, G domain, domain II, start of domain III); one molecule per asymmetric unit
T1 sequence (P48515 1-363): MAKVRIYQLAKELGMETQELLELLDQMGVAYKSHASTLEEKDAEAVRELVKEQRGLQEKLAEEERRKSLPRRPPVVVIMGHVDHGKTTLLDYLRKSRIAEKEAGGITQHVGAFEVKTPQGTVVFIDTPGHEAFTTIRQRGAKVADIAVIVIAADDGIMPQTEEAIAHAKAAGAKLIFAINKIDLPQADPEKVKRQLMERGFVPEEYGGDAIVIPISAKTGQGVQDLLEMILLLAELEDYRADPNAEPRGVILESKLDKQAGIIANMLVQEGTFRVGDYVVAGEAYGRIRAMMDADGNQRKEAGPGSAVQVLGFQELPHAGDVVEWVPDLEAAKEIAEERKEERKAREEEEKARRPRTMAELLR

[2] = target: T1, IF2 (protein core, residues 1-363); experiment: X-ray crystal structure, […] A, crystal soaking; format: binding; conditions: 30 s soak with GTP-containing cryoprotectant; Mg2+ bound; pH 7.5 protein buffer; G-domain P-loop site; GTP occupancy 0.68

Row | Structure (SMILES) | X-ray crystal structure, 2.3 A, crystal soaking [1] | X-ray crystal structure, 2.8 A, crystal soaking [2]
1 | Nc1nc2c(ncn2[C@@H]2O[C@H](COP(=O)(O)OP(=O)(O)O)[C@@H](O)[C@H]2O)c(=O)[nH]1 [GDP] | 4b3x, 4b48, 4b47 for the apo, GTP and GDP complexes, respectively | –
2 | Nc1nc2c(ncn2[C@@H]2O[C@H](COP(=O)(O)OP(=O)(O)OP(=O)(O)O)[C@@H](O)[C@H]2O)c(=O)[nH]1 [GTP] | – | 4b3x, 4b48, 4b47 for the apo, GTP and GDP complexes, respectively
